Like-named read-outs stand apart in the source and are kept apart here.

Series [1] has as its target human α-Gal A purified from spleen (Homo sapiens, UniProt P06280). The note with it: read-out: Km (4-MU-α-D-Gal); cited from earlier work.
Series [2] deals with human α-Gal A purified from plasma (Homo sapiens, UniProt P06280). The note with it: read-out: Km (4-MU-α-D-Gal); cited from earlier work.
Series [3] relates to CHO cells secreting recombinant α-Gal A. Nature of the series: Effect of glycosylation inhibitors on the secretion of recombinant α-Gal A. The class given is cell-based, Chinese hamster. To be noted: recombinant CHO cultures, FIG. 15; concentration not given. An excerpt: FIG. 15. Effect of glycosylation inhibitors on the secretion of recombinant α-Gal.
For series [4], the target named is α-Gal A-Protein A domain E fusion protein (human; Staphylococcus aureus).
Series [5] has as its target recombinant human α-galactosidase A secreted by CHO DG5.3 cells (human).
Series [6] shares this target. This is another data set of the same source.
Series [7] addresses Sambucus nigra agglutinin (Sambucus nigra). Description: SNA-Sepharose chromatography of secreted enzyme.
Substrate in series [8]: Cc1cc(=O)oc2cc(O[C@H]3O[C@H](CO)[C@H](O)[C@H](O)[C@H]3O)ccc12
Nature of the series: purified protein, by the assay type. The note with it: other: recombinant α-Gal A; artificial substrate; pH 4.6; 37.0 °C.

As to `Cc1cc(=O)oc2cc(O[C@H]3O[C@H](CO)[C@H](O)[C@H](O)[C@H]3O)ccc12` [4-MU-α-D-galactopyranoside, 4-methylumbelliferyl-α-D-galactopyranoside], the Km in series [1] is 2500 µM; in series [2] it was 1900 µM.

Consider `OC[C@H]1NC[C@@H](O)[C@@H](O)[C@@H]1O` [deoxymannojirimycin], for which, in series [3], the “α-Gal A secretion rate” value is “remains the same as the controls”.

`OC[C@H]1NC[C@H](O)[C@@H](O)[C@@H]1O` [deoxynojirimycin]: the “α-Gal A secretion rate” value in series [3] was “remains the same as the controls”.

For `O[C@H]1[C@H]2[C@H](O)CCCN2C[C@H]1O` [swainsonine], the “α-Gal A secretion rate” value in series [3] was “remains the same as the controls”.

For Collagenase (enzyme), the % Of Recovered α-Gal A Activity in the IgG column flow-through after collagenase treatment in series [4] was 89%.

As for endoglycosidase F (enzyme), the shift in mobility on SDS-PAGE in series [5] was 4 kDa.

For the molecule “peptide:N-glycosidase F (from UniProt P21163) (enzyme)”, in series [6], the shift in mobility on SDS-PAGE worked out at 7 kDa.

The molecule “recombinant human α-galactosidase A secreted by CHO DG5.3 cells (enzyme)” displayed a Percent of Secreted α-Gal A Bound to SNA-Lectin in series [7] of 5%.

As to tunicamycin, the “inhibition of secretion of α-Gal A” value in series [3] is given as ≤ 80%.

B1: recombinant human α-galactosidase A (α-Gal A), secreted by CHO DG5.3 cells, purified (Homo sapiens) (protein)
chain: LDNGLARTPTMGWLHWERFMCNLDCQEEPDSCISEKLFMEMAELMVSEGWKDAGYEYLCIDDCWMAPQRDSEGRLQADPQRFPHGIRQLANYVHSKGLKLGIYADVGNKTCAGFPGSFGYYDIDAQTFADWGVDLLKFDGCYCDSLENLADGYKHMSLALNRTGRSIVYSCEWPLYMWPFQKPNYTEIRQYCNHWRNFADIDDSWKSIKSILDWTSFNQERIVDVAGPGGWNDPDMLVIGNFGLSWNQQVTQMALWAIMAAPLFMSNDLRHISPQAKALLQDKDVIAINQDPLGKQGYQLRQGDNFEVWERPLSGLAWAVAMINRQEIGGPRSYTIAVASLGKGVACNPACFITQLLPVKRKLGFYEWTSRLRSHINPTGTVLLQLENTMQMSLKDLL
Regarding B1, the Km in series [8] is 1900 µM.

(Values after patent US5580757A, “Cloning and expression of biologically active α-galactosidase A as a fusion protein” (The Mount Sinai School of Medicine of the City University …, priority 1994, dated 1996).)
